Data as given in patent US12220418B2 (MEDINCELL S.A., priority 2023, dated 2025).

Assay: Open-label SAD and MAD study, pharmacokinetics in healthy subjects and patients
Type: in vivo, human
Conditions: oral, 2.5 to 20 mg/day for 7 days
Experimental: This study was an open-label, SAD, and MAD study to evaluate the safety, tolerability, and PK of Formulation 1 in healthy subjects and patients with a diagnosis of schizophrenia or schizoaffective disorder. Healthy subjects received subtherapeutic Formulation 1 doses of up to 105 mg and patients received therapeutic doses of up to 566 mg. […] Subjects and patients who met screening eligibility were assigned to 1 of 8 active cohorts, or the Vehicle Cohort, as detailed in Table 5.1 below.
All cohorts included assessments of safety, tolerability, and intensive PK sampling.
Except for the starting dose of 70 mg, the study followed an adaptive design in which the decision to dose-escalate with Formulation 1 was based on a review of the PK and safety data from the preceding lower dose of Formulation 1.
An extensive PK collection scheme was applied following the last oral dose to fully characterize the PK at steady-state.
In multiple-dose cohorts, the 3 doses of Formulation 1 were administered on day 1, day 29 (week 4) and day 57 (week 8), respectively.

Q: Which “increase of systemic exposure (Cmax, AUCτ,ss) with dose” value does the source give for Cc1cc2c(s1)Nc1ccccc1N=C2N1CCN(C)CC1 [olanzapine, 2-methyl-4-(4-methyl-1-piperazinyl)-10H-thieno[2,3-b] [1,5]benzodiazepine] here?
A: dose-proportional
